Assay results reported in patent US8501783B2, “Conformationally restricted urea inhibitors of soluble epoxide hydrolase” (The Regents of the University of California, priority 2006, dated 2013).

system: not listed separately; assay: Pharmacokinetic screening in dogs, oral administration, plasma LC-MS/MS; settings: dog, plasma, po, 0.3 mg/kg

Structure (SMILES)	AUC [µM·h]
CC(=O)N1CCC(CNC(=O)NC23CC4CC(CC(C4)C2)C3)CC1 [Compound 1156, N-((1-acetylpiperidin-4-yl)methyl)-N′-(adamant-1-yl)urea]	0.0817

target: human sEH (Homo sapiens (Human), UniProt P34913); assay: Inhibition of human soluble epoxide hydrolase (IC50; one of three substrate methods); type: biochemical; settings: not given;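 also: enzyme expressed in baculovirus and affinity-purified, assays run in triplicate, with substrate and read-out differing among the three methods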
Sequence (P34913 whole entry): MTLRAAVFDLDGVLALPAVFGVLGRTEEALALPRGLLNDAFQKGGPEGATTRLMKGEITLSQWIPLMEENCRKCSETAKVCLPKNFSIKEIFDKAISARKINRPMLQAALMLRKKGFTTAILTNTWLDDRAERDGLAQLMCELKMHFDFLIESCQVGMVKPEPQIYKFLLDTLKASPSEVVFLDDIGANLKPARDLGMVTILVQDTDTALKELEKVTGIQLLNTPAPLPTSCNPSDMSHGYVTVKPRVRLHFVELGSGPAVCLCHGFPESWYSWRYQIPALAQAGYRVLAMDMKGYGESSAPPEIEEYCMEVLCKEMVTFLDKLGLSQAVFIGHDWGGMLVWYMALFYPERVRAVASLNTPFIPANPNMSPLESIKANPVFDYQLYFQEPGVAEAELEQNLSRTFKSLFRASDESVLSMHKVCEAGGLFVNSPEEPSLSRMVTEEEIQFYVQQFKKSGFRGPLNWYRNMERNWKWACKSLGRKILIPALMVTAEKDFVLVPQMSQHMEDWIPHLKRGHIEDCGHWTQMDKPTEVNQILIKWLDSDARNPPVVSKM

Structure (SMILES)	IC50 [nM]
COC(=O)c1cccc(C(=O)N2CCC(NC(=O)NC34CC5CC(CC(C5)C3)C4)CC2)c1 [Compound 1203, 3-[4-(3-Adamantan-1-yl-ureido)-piperidine-1-carbonyl]-benzoic acid methyl ester]	1.1
COC(=O)CCC(=O)N1CCC(NC(=O)NC23CC4CC(CC(C4)C2)C3)CC1 [Compound 1205, 4-[4-(3-Adamantan-1-yl-ureido)-piperidin-1-yl]-4-oxo-butanoic acid methyl ester]	9
O=C(NC1CCN(C(=O)c2ccncc2)CC1)NC12CC3CC(CC(C3)C1)C2 [Compound 1433, N-(1-(pyridine-4-carbonyl)piperidin-4-yl)-N′-(adamant-1-yl)urea]	1.7
O=C(NC1CCN(C(=O)c2cccnc2)CC1)NC12CC3CC(CC(C3)C1)C2 [Compound 1434, N-(1-(Pyridine-3-carbonyl)piperidin-4-yl)-N′-(adamant-1-yl)urea]	2.1
O=C(O)CCCC(=O)N1CCC(NC(=O)NC23CC4CC(CC(C4)C2)C3)CC1 [Compound 1501, 5-[4-(3-Adamantan-1-yl-ureido)-piperidin-1-yl]-5-oxo-pentanoic acid]	72.8

same assay, conditions: recombinant human sEH

Structure (SMILES)	IC50 [nM]
CCCC(=O)N1CCC(CNC(=O)NC23CC4CC(CC(C4)C2)C3)CC1 [Compound 1120, N-((1-butyrylpiperidin-4-yl)methyl)-N′-(adamant-1-yl)urea]	6.7
CCC(=O)N1CCC(CNC(=O)NC23CC4CC(CC(C4)C2)C3)CC1 [Compound 1162, N-((1-propanoylpiperidin-4-yl)methyl)-N′-(adamant-1-yl)urea]	8.7
COC(=O)c1ccccc1C(=O)N1CCC(NC(=O)NC23CC4CC(CC(C4)C2)C3)CC1 [Compound 1202, 2-[4-(3-Adamantan-1-yl-ureido)-piperidine-1-carbonyl]-benzoic acid methyl ester]	1.7
O=C(NCC1CCN(C(=O)c2ccccn2)CC1)NC12CC3CC(CC(C3)C1)C2 [Compound 1207]	7.6
COC(=O)CCC(=O)N1CCC(CNC(=O)NC23CC4CC(CC(C4)C2)C3)CC1 [Compound 1208, 4-{4-[(3-Adamantan-1-yl-ureido)-methyl]-piperidin-1-yl}-4-oxo-butanoic acid methyl ester]	6.2
COC(=O)c1cccc(C(=O)N2CCC(CNC(=O)NC34CC5CC(CC(C5)C3)C4)CC2)c1 [Compound 1209, 3-{4-[(3-Adamantan-1-yl-ureido)-methyl]-piperidine-1-carbonyl}-benzoic acid methy ester]	4.1
COC(=O)c1ccccc1C(=O)N1CCC(CNC(=O)NC23CC4CC(CC(C4)C2)C3)CC1 [Compound 1210, 2-{4-[(3-Adamantan-1-yl-ureido)-methyl]-piperidine-1-carbonyl}-benzoic acid methy ester]	1.8
COC(=O)c1ccc(C(=O)N2CCC(CNC(=O)NC34CC5CC(CC(C5)C3)C4)CC2)cc1 [Compound 1211, 4-{4-[(3-Adamantan-1-yl-ureido)-methyl]-piperidine-1-carbonyl}-benzoic acid methyl ester]	1.5
COC(=O)CCCC(=O)N1CCC(CNC(=O)NC23CC4CC(CC(C4)C2)C3)CC1 [Compound 1212, 5-{4-[(3-Adamantan-1-yl-ureido)-methyl]-piperidin-1-yl}-5-oxo-pentanoic acid methyl ester]	3.4
O=C(NCC1CCN(C(=O)c2ccncc2)CC1)NC12CC3CC(CC(C3)C1)C2 [Compound 1435]	5.4
O=C(NCC1CCN(C(=O)c2cccnc2)CC1)NC12CC3CC(CC(C3)C1)C2 [Compound 1436, N-((1-(pyridine-3-carbonyl)piperidin-4-yl)methyl)-N′-(adamant-1-yl)urea]	7.3
O=C(O)CCCC(=O)N1CCC(CNC(=O)NC23CC4CC(CC(C4)C2)C3)CC1 [Compound 1500, 5-{4-[(3-Adamantan-1-yl-ureido)-methyl]-piperidin-1-yl}-5-oxo-pentanoic acid]	41.6
